The values that follow come from patent publication US20100130598A1, “METHODS FOR INDUCING PROGRAMMED CELL DEATH” (Novogen Research Pty Ltd., priority 2008, published 2010).

One series relates to MIAPaCa-2 cells. The series can be described thus: Mitochondrial membrane potential by FACS (JC-1), MIAPaCa-2. It counts as cell-based, human. The settings on record: MIAPaCa-2, dose-dependent, 48 hrs of treatment. The method, then:
(§1) Cells. Human pancreatic cell lines HPAC, MIAPaCa-2 and PANC-1 were obtained from the ATCC. (Manassas, Va.). The cells were maintained in DMEM media with Gln and high glucose (Mediatech, Manassas, Va.) with 10% fetal bovine serum (FBS, HyClone, Logan, Utah) and pencillin/streptomycin.
(§2) FACS Analysis. Apoptosis was measured by FACS analysis using Annexin-V-FITC and propidium iodide (PI) (Biovision, Mountain View, Calif.) as probes (Ahn et al., 2003). Mitochondrial membrane potential was measured by FACS analysis using JC-1 (Biovision) as a probe (Ahn et al., 2003). Cell cycle was analyzed on ethanol-fixed, RNaseA-treated cells staining with PI. In each spectrum, 10,000 gated events were recorded and analyzed with a FACSCalibur (BD Biosciences. San Jose, Calif.). All experiments were done in triplicate, error bars represent one standard deviation. Caspase inhibitor I (zVAD-fmk) was obtained from Calbiochem.
(In general: Flow cytometry measures light scatter and fluorescence of single cells or particles in a stream.)

The next series relates to PANC-1 cells. The series can be described thus: Apoptosis/necrosis by FACS (Annexin-V-FITC/PI), PANC-1. The settings on record: PANC-1, dose-escalating, 48 hr exposure. It counts as cell-based, human. The method, then:
as §1, §2

In series [1] the test system is Caspase 2, 3 and 9 in MIAPaCa-2 cells. Description: In situ caspase activity by flow cytometry, MIAPaCa-2. The settings on record: MIAPaCa-2, 10 μM, after 48 hrs. In kind it is cell-based, human. Here is the method:
as §1
Caspase Activity After 48 h treatment with 10 μM Compound 10, HPAC, MIAPaCa-2 and PANC-1 cells were harvested by trypsinization and resuspended in DMEM media with 10% FBS. The cells were incubated with caspase substrates for 1 h at 37° C., 5% CO2, then probed with Annexin-V-Cy5 and sytox blue. Caspase +ve cells were gated as shown in the histograms and these cells are indicated on the Annexin-V-Cy5/sytox blue spectra as blue cells. In situ caspase activity was assayed using fluorescent substrates. For Caspase 2, FITC-VDVAD-fmk (Biovision K182-100), for Caspase 3, FITC-DEVD-fmk (K183-100) and for Caspase 9, FITC-LEHD-fmk (K199-100) was used. These substrates bind irreversibly to their respective activated caspases, and caspase activation was quantitated by flow cytometry. […] Caspase activation, apoptosis and necrosis were measured simultaneously using a violet, blue and red laser in a BD LSRII flow cytometer.

Another series has as its system HPAC cells. Description: Apoptosis/necrosis by FACS (Annexin-V-FITC/PI), HPAC. It counts as cell-based, human. Here is the method:
as §1, §2

For another series, the system named is MIAPaCa-2. The series can be described thus: MIAPaCa-2 pancreatic cancer xenograft. It counts as in vivo, Balb/c nude mice. The settings on record: MIAPaCa-2 model. Here is the method: For xenograft studies, five week old male Balb/c nude mice were maintained on an isoflavone-free diet to remove background isoflavone levels contributed by standard feed. On the day of inoculation a suspension of MIAPaCa2 or HPAC cells was prepared in DMEM (-FBS), chilled on ice and then an equal volume of matrigel (BD) was added. Mice were inoculated subcutaneously with 3×10^6 MIAPaCa2 or HPAC cells bilaterally (midway between the axillary and inguinal region) along the dorsal surface, ensuring that cells to be injected were growing at mid-end log phase. Tumor growth was monitored over 10-15 days. Compound 10 was given orally by gavage in 1% carboxy methyl cellulose (CMC) as a vehicle. Gemcitabine was injected intraperiponeally in PBS. In combination groups animals were first dosed with Compound 10 and then dosed with gemcitabine using the respective administration schedule, dosage and route of delivery stated.

Another series relates to EOC tumors. Description: Mouse EOC xenograft study. It counts as in vivo. The method, then:
Mouse xenograft studies. The in vivo study as approved by the Yale University Institutional Animal Care & Use Committee. Cells (1×10^6 cells) were resuspended in 200 μ1 total volume of 50% RPMI and 50% BD Matrigel Matrix (BD Biosciences, Bedford, Mass.) and injected subcutaneously into the right flank of NCR nude mice. Intra-peritoneal therapy commenced eight days post-inoculation as follows: Paclitaxel 10 mg/kg q×3d, Carboplatin 40 mg/kg q×7d, and Compound 1 in 20% HPBCD, 100 mg/kg every day. Control groups received 20% HPBCD in PBS. Mice were treated and observed for 3 weeks. Tumor size was determined by caliper measurements and anti-tumor activity was analyzed with respect to maximal tumor inhibition (treated/control, T/C) as described previously (Kamsteeg et al, 2003).

Series [2] relates to phosphorylated Akt (p-Akt). The series can be described thus: Western blot of EOC whole cell lysates for phospho-Akt. The settings on record: EOC cells, 10 g/ml (as printed, FIG. 2 legend), as early as 15 mins post-treatment. In kind it is cell-based, human. The source says: Protein preparation and cellular fractionation. After drug treatment, protein was extracted and measured as previously described (Alvero et al, 2006). For separation of the cytoplasmic and mitochondrial fractions, cell pellets were processed using the ApoAlert™ Cell Fractionation Kit (BD Biosciences, San Jose, Calif.) according to the manufacturer's instructions. For separation of the cytoplasmic and nuclear fractions, pellets were processed using NE-PER Nuclear and Cytoplasmic Extraction (Pierce Biotechnology, Inc., Rockford, Ill.).
SDS-PAGE and Western blots. Cell lysates (20 μg protein) were denatured in sample buffer (2.5% SDS, 10% glycerol, 5% β-mercapto-ethanol, 0.15 M Tris (pH=6.8) and 0.01% bromophenol blue) and subjected to 12% SDS-PAGE as previously described (Kamsteeg et al, 2003). […]
In general terms: In western blotting, separated proteins are transferred to a membrane and probed.

[3] abbreviates: dose-escalating, 48 hr exposure.

Consider `COc1ccc(C2c3ccc(O)cc3OCC2c2ccc(O)cc2)cc1` (centres unmarked) [Compound 10, 3-(4-hydroxyphenyl)-4-(4-methoxyphenyl)chroman-7-ol], for which the mitochondrial depolarization result in the series with MIAPaCa-2 cells is on record as “depolarized”. Further, the apoptosis entry with PANC-1 cells and in the series with HPAC cells (setting [3]) was “induced apoptosis in a dose-dependent fashion” each time. The necrosis entry with PANC-1 cells and in the series with HPAC cells (setting [3]) was “Very little necrosis” throughout. Also, in series [1], the “caspase 2, 3 and 9 activation” value is listed as “activated”. The “effect of zVAD-fmk pre-treatment on induced apoptosis” value with HPAC cells (10 μM zVAD-fmk 1 hr before 10 μM Compound 10, 42-46 h) is given as “did not inhibit”. Also, the “effect of zVAD-fmk pre-treatment on induced necrosis” value in the series on HPAC cells (10 μM zVAD-fmk 1 hr pre-treatment, 10 μM Compound 10 or Fas-activating antibody) was “inhibited”. Moreover, the “% T/C (mean terminal tumor burden)” value in the series on MIAPaCa-2 (Compound 10 100 mg/kg oral qd×12, gemcitabine 20 mg/kg q3d×4, alone or combined) came out at 94%. The “rate of tumor proliferation” value with MIAPaCa-2 (oral 100 mg/kg, qd×12, vs vehicle control, level similar to gemcitabine) is given as “retarded”.
`COc1ccc(C2c3ccc(O)c(C)c3OCC2c2ccc(O)cc2)cc1` (centres unmarked) [Compound 1, 3-(4-hydroxyphenyl)-4-(4-methoxyphenyl)-8-methylchroman-7-ol]: in the series with EOC tumors (dose-dependent, compared to carboplatin and paclitaxel), the “tumor proliferation kinetics, final tumor size and volume” value is “significant decrease”. Besides, the “T/C values (maximal tumor inhibition, treated/control)” value in the series on EOC tumors (intra-peritoneal, 3 weeks, Compound 1 100 mg/kg every day, Carboplatin 40 mg/kg q×7d, Paclitaxel 10 mg/kg q×3d) is 30%. Besides, in the series with EOC tumors (mouse, in vivo), the toxic side effects entry is recorded as “No toxic side effects”. Further, in series [2], the p-Akt level result was “strong down-regulation”.
